This is an account of results in patent publication US20250101383A1, “METHODS AND COMPOSITIONS FOR CARDIAC MODELS” (Sanford Burnham Prebys Medical Discovery Institute, priority 2023, published 2025).

For test [1], the system named is Drosophila heart. In words: Octopamine-challenge heart assay. The format is in vivo. The following applies: for mean nMAD (arrhythmia) post-octopamine pacing: 100 nM OA. An excerpt: Cardiac phenotypes of middle-aged (3-weeks old) female flies from each cross were characterized using denervated, semi-intact preparations as previously described in (Ocorr et al., 2009; Vogler and Ocorr, 2009). Briefly, hearts from 20-25 flies were examined for each genotype and age. Adult female flies were exposed to FlyNap, a triethylamine-based anesthetic, for at least one minute until no movement was detected. Hearts were exposed by dissection in room temperature, air bubbled, artificial hemolymph (AHL, Ocorr et al, 2007). High-speed video recordings were filmed with a Hamamatsu EM-CCD camera and using HC Image capture software (Hamamatsu Corp). Heart movements were analyzed using the Semi-automated Optical Heartbeat Analysis (SOHA) software (sohasoftware.com). Movies were recorded at speeds of 140+ fps with pixel resolution ˜ 1 micron/pixel allowing very precise temporal and spatial measurements, including heart period (HP) and rate (1/HP), diastolic and systolic intervals, and fractional shortening/contractility. To quantitate arrhythmia, median absolute deviation (MAD) was first calculated. The median value of the absolute deviations of each heart period (Xi) from the median heart period ((X)) was calculated and then multiplied by a constant (k=1.4826 assuming data is normally distributed).
To normalize the MAD index (nMAD), the MAD value was divided by the median heart period. Qualitative records of heart wall movements (M-modes/kymographs) were produced by electronically excising a 1 pixel horizontal “slice” from each movie frame and aligning them horizontally providing an edge trace displaying heart wall movements in the X-axis over time along the Y-axis (Ocorr et al., 2009; Ocorr et al., 2007c).
Octopamine (OA) pacing experiments were performed in situ on the semi-intact fly preparation. OA (Sigma-Aldrich #00250) stock solution (10 mM) was freshly prepared by dissolving in water and was further diluted in AHL. A dose-response curve was generated using doses ranging from 0.1 nM OA to 500 nM OA (Supplemental FIG. 5A). The increase in heart rate was maximal at 100 nM OA, which was the dose used for all subsequent pacing experiments (Supplemental FIG. 5B). Following dissection, hearts were first allowed to equilibrate in fresh AHL for 15 min and 30 sec movies of heart function were recorded. Heart function was recorded three times per fly: 1) pre-drug exposure, 2) after a 15-minute exposure to 100 nM OA, and 3) after a 15-minute post drug exposure recovery period. A second set of hearts exposed only to vehicle (AHL) were filmed at the same three 15-minute intervals to serve as time controls.

Test [2] relates to hiPSC-ACMs (atrial-like cardiomyocytes). Briefly: Arrhythmia assay and drug treatment in ACMs (arrhythmia index, AI). The following applies: for percentage of cells with AI values >20: control 4%. The format is cell-based, human. As for the experimental part:
To test the platform's ability to identify APD modulators, ACMs of the present disclosure were infused with isoproterenol, a non-selective β-adrenergic agonist, known to both shorten APD and increase beat rate in hiPSC-CMs. […] Consistent with median APD75 values, escalating doses of isoproterenol (1 and 9 μM) led to an increase of APD75 KS-D value to ˜0.4 and 0.7 respectively, as compared to control (FIG. 5C). Similarly, to quantify cellular manifestations of arrhythmia, an arrhythmia index (AI) was developed that quantifies beat-to-beat interval irregularities as a metric for arrhythmically beating cells (FIG. 9). In this context, AP trains with AI values lower than 20 were determined to describe regular beating patterns, while AP train with AI values >20 mark were determined to describe irregular beating patterns (FIGS. 10A-E). Finally, to benchmark the platform for arrhythmia-associated phenotypes, the role of dofetilide, a class III anti-arrhythmic that selectively blocks the rapid component of the delayed rectifier outward potassium, was tested.
24 hours post-transfection, 2,000 primary human fibroblasts were added per well to the hiPSC-ACMs. 48 hours later (the day of the imaging), cells were dyed with the voltage sensitive dye Vf2.1 Cl as described above, then treated with 50 μL of 2× solution of isoproterenol (1 μM final) diluted in Tyrode alone and in combination with 2× solution of Verapamil (30 nM final), diluted in Tyrode at the 5th wash. After 20 minutes of compound incubation time, cells were imaged, and single-cell traces analyzed as described previously.

Test [3] shares this test system. Briefly: Voltage assay in ACMs (single-cell APD). The format is cell-based, human. The following applies: for median APD75: untreated 121.3 ms. The source says: Next, to facilitate the characterization of AF-associated arrhythmia phenotypes in ACMs, an imaging platform was developed that automatically tracks and quantifies action potential (AP) and rhythm parameters in HT with single cell resolution (FIGS. 4A-D). To retrieve AP and rhythm parameters, ACMs of the present disclosure were co-labeled with a voltage dye (VF2.1Cl) and a nuclear dye (Hoechst 33258) (McKeithan et al., 2017). For each condition, one image of the Hoechst dye was collected followed by a 5-second acquisition of the voltage dye channel at 100 Hz. Next, using a custom algorithm developed on the ImageXpress®, each cell in the field of view was segmented using the Hoechst topological information and each cell mask was propagated to the “voltage dye channel”, thereby enabling the quantification of voltage-dependent fluorescence variation over time with single-cell resolution. To retrieve the electrophysiological parameters, a cloud-based trace analysis application was developed that automatically processes each AP trace and retrieves median and standard deviation values, for APD-10, 25, 50, 75, 90; T25-75, T75-25; Vmax up and down; beat rate; peak-to-peak interval; and rhythm regularity index; for each cell. This platform enabled the automatic recording, quantification, and analysis of AP and rhythm parameters in less than 2 minutes per condition.
Voltage assay was performed using the labeling protocol described herein. Briefly, hiPSC-ACMs at day 25 of differentiation were dissociated with TrypLE Select 10× for up to 10 min and the action of TrypLE was neutralized with RPMI supplemented with 10% FBS. Cells were resuspended in RPMI with 2% KOSR (Gibco) and 2% B27 50× with vitamin A (Life Technologies) supplemented with 2 μM Thiazovivin and plated at a density of 6,000 cells per well in a Matrigel-coated 384-well plate. hiPSC-ACMs were then transfected with siRNAs directed against AFib-associated genes (ON-TARGETplus Human, siGATA4: J-008244-05-0002, siGATA5: J-010324-06-0005, siGATA6: J-008351-06-0005, siGJA1: J-011042-05-0002, siGJA5: J-017368-05-0002, siHAND2: J-008698-06-0005, siHCN4: J-006203-05-0002, siKCNA5: J-006215-06-0005, siKCND3: L-006226-00-0005, siKCNJ5: J-006250-06-0002, siKCNN3: J-006270-06-0002, siNKX2-5: J-019795-07-0002, siNKX2-6: J-025793-17-0002, siNPPA: J-012729-05-0002, siPITX2: J-017315-05-0005, siPLN: J-011754-05-0005, siSH3PXD2A: J-006657-07-0002, siSYNE2: J-019259-09-0002, siTBX5: J-013410-5-0002, siZFHX3: J-015410-5-0002) using lipofectamine RNAi Max (ThermoFisher). […] Fluorescence over time quantification and trace analysis were quantified using custom software packages. […]

Test [4] relates to Id1-induced CPs. In words: Generation of atrial-like cardiomyocytes from Id1-induced cardiac progenitors. The format is cell-based, human. The following applies: retinoic acid 300 nM single dose, day 12. Here is the method:
To study the molecular basis of chamber-specific electrical disorders such as atrial fibrillation, Id1-overexpressing cardiac progenitors (CPs) were used to generate ACMs (Cunningham et al., 2017, and Yu et al., 2018). Treatment of Id1-induced CPs with a single dose of retinoic acid (300 nM) efficiently promoted the generation of atrial-like, NR2F2+ beating CMs (˜80% were NR2F2+, ACTN2+) (FIG. 1 and FIGS. 2A-B). Consistent with an atrial-like identity, induced ACMs also expressed atria-enriched (Devalla et al., 2015; Uhlen et al., 2015) transcription factors (NR2F2, TBX5, ZNF385B), ion channel genes KCNA5 (encoding Kv1.5) and KCNJ3 (encoding Kir 3.1), ligands (NPPA, NPPB) and receptors (EGR1/2, PDGFRA), at both day 12 and at day 25 of differentiation (FIG. 2C and FIGS. 6A-B).
ACMs for the study were developed by dissociating Id1 overexpressing hiPSCsl with 0.5 mM EDTA (ThermoFisher Scientific) in PBS without CaCl2 and MgCl2 (Corning) for 7 min at room temperature. hiPSC were resuspended in mTeSR-1 media (StemCell Technologies) supplemented with 2 μM Thiazovivin (StemCell Technologies) and plated in a Matrigel-coated 12-well plate at a density of 3×10^5 cells per well. […]

Setting [5] is: acute OA exposure, control and KD lines.

Structures are written as SMILES.

On to `NCC(O)c1ccc(O)cc1` (stereo not shown) [octopamine], for which the “mean nMAD (arrhythmia) post-octopamine pacing” value in test [1] (PLN/SclA KD hearts) turned out to be 0.1342. Further, the “mean nMAD (arrhythmia) post-octopamine pacing” value in test [1] (control hearts) stood at 0.0379. Besides, in test [1] (setting [5]), the heart rate entry was “significantly elevated heart rate” and the systolic intervals entry is on record as “significantly shortening systolic intervals”. Besides, the “dose of maximal effect on heart rate” value in test [1] (doses 0.1 nM to 500 nM OA) amounted to 100 nM. Also, the “contraction and relaxation intervals” value in test [1] (in the presence of OA) is reported as “significantly shortened”.

In the case of `CN(CCOc1ccc(NS(C)(=O)=O)cc1)CCc1ccc(NS(C)(=O)=O)cc1` [dofetilide], the “proportion of arrhythmic cells (AI>20)” value in test [2] (dofetilide 33 nM, control 4.0%) was 3.9%. Also, in test [2] (dofetilide 100 nM), the “KS-D value of AI distribution vs control” value is reported as 0.7 and the “percentage of cells with AI values >20” value came to 67%. The “percentage of cells with AI values >20” value in test [2] (dofetilide 100 nM, listed as Dofetilide) is 67.0%. In test [2] (low dose of dofetilide (33 nM)), the “AI as compared to control” value was “reduced AI”.

Turning to `CC(C)NCC(O)c1ccc(O)c(O)c1` (stereo not shown) [isoproterenol], in test [2] (isoproterenol alone), the “percentage of arrhythmic cells” value is on record as “did not increase”. Besides, in test [3] (isoproterenol 1 μM), the “APD75 KS-D value as compared to control” value is recorded as roughly 0.4 and the “median APD75” value is given as 108.6 ms. In test [3] (isoproterenol 9 μM), the “APD75 KS-D value as compared to control” value worked out at 0.7 and the “median APD75” value amounted to 91.2 ms.

Take `COc1ccc(CCN(C)CCCC(C#N)(c2ccc(OC)c(OC)c2)C(C)C)cc1OC` (stereo not shown) [verapamil]: the “fold less arrhythmic than DMSO control” value in test [2] (verapamil 30 nM, PLN KD+Fib+isoproterenol) worked out at 1.7 fold. Besides, in test [2] (verapamil 30 nM, PLN KD+Fib+isoproterenol, DMSO control 31.2%), the “percentage of arrhythmic cells” value stood at 18%.

In the case of `CC1=C(/C=C/C(C)=C/C=C/C(C)=C/C(=O)O)C(C)(C)CCC1` [retinoic acid], in test [4], the “NR2F2+, ACTN2+ cells” value is recorded as roughly 80%.
